From patent US20200008426A1, “ACTIVE COMPOUND COMBINATIONS” (BAYER AKTIENGESELLSCHAFT, priority 2017, published 2020)
Where “and” joins values, the source holds several entries; their conditions need not be identical. Identical values can stand only once. Like-named read-outs stand apart in the source and are kept apart here.

What was measured:
Puccinia triticina = assay: In vivo preventive Puccinia triticina test (wheat); conditions: 8 days after inoculation
Method: After the spray coating has been dried, the plants are sprayed with a spore suspension of Puccinia triticina.
The test is evaluated 8 days after the inoculation.

Pyricularia oryzae = format: cell-based
Septoria tritici = assay: In vivo preventive Septoria tritici test (wheat); conditions: 21 days after inoculation
Method: After the spray coating has been dried, the plants are sprayed with a spore suspension of Septoria tritici.
The test is evaluated 21 days after the inoculation.

[1] = tested on: fish (Danio rerio) embryos; assay: In vivo ecotoxicity screening test on fish (Danio rerio); conditions: active compound alone; fish embryos, 96 h, 28.5° C.
Method: with ECxi the Effect Concentration (EC) of each chemical i (in ppm) causing x % effect on the ecotoxicity test endpoint.
For each compound combination, the predicted ECx value is calculated. It is then compared to an experimentally measured value. The ratio of predicted versus measured effect for the combination (thereafter called the Model Deviation Ratio or MDR) is then calculated.
The environmental effect of the compound combinations was measured experimentally in laboratory ecotoxicity screening studies with fish (Danio rerio). […] Mortality was recorded after 96 h for each tested concentration and a reference control. […] Then, the MDR values were calculated.
• Solvent: 0.5% by weight dimethyl sulfoxide
This concentrate is then diluted with water to the desired a.i. concentration, leading to a maximal solvent concentration of 0.5% by weight. The compounds alone and the combinations were tested for five increasing concentrations between 0.01 and 1000 ppm a.i., (e.g. 0.1, 1.0, 10 and 100 ppm a.i). For the combinations, compounds A and B were mixed in a weight ratio of 5:1 to 1:5 and five increasing concentrations were tested for each ratio.

Alternaria solani = assay: In vivo preventive test on Alternaria (tomatoes)
Method: The plants are then placed in an incubation cabinet at approximately 20° C. and a relative atmospheric humidity of 100%.
(§1) The test is evaluated 3 days after the inoculation.

Colletotrichum coccodes = assay: In vivo preventive test on Colletotrichum (tomatoes); conditions: 3 days after inoculation
Method: as §1

Pyrenophora teres = assay: In vitro-Test with Pyrenophora teres; format: cell-based
Phakopsora pachyrhizi = assay: In vivo preventive test on Phakopsora (soybeans); conditions: 7 days after inoculation
Venturia inaequalis = assay: In vivo preventive test on Venturia (apples); conditions: Table E1, 10 days after inoculation
Method: The test is evaluated 10 days after the inoculation.

[2] = Alternaria solani, 72 h, read-out: Efficacy in % found

Cc1nn(C)c(F)c1C(=O)Nc1ccccc1C(C)CC(C)C (stereo not shown) [Example 2.017, penflufen]
Efficacy in % found (Puccinia triticina; 20 ppm a.i.): 56% | Efficacy in % found (Puccinia triticina; 40 ppm a.i.): 89% | Efficacy in % found (Puccinia triticina; 80 ppm a.i.): 100% | Efficacy % (Pyricularia oryzae; 1 ppm): 44% | Efficacy % (Pyricularia oryzae; 5 ppm): 91% | Efficacy in % found (Septoria tritici; 20 ppm a.i.): 29% | Efficacy in % found (Septoria tritici; 40 ppm a.i.): 0% | Efficacy in % found (Septoria tritici; 80 ppm a.i.): 0% | Ecotoxicity LC50-96 h found [1]: 0.62 ppm a.i.

CC(C)(C)C(O)(CCc1ccc(Cl)cc1)Cn1cncn1 (stereo not shown) [1.021 tebuconazole, tebuconazole]
pest or weed control at 2.5 ppm (Alternaria solani; Alternaria solani, 72 h, Table A1, 2.5 ppm a.i., 3 days after inoculation, read-out: Efficacy in % found): 5% | pest or weed control at 5 ppm (Alternaria solani; Alternaria solani, 72 h, Table A1, 5 ppm a.i., 3 days after inoculation, read-out: Efficacy in % found): 21% | pest or weed control at 10 ppm (Alternaria solani; Alternaria solani, 72 h, Table A1, 10 ppm a.i., 3 days after inoculation, read-out: Efficacy in % found): 74% | Efficacy in % found (Colletotrichum coccodes; Table B1, 2.5 ppm a.i.): 44% | Efficacy in % found (Colletotrichum coccodes; Table B1, 5 ppm a.i.): 44% | Efficacy in % found (Colletotrichum coccodes; Table B1, 10 ppm a.i.): 64%

CC1CC(C)(C)c2cccc(NC(=O)c3cn(C)nc3C(F)F)c21 (stereo not shown) [Example 2.027, 3-(difluoromethyl)-1-methyl-N-(1,1,3-trimethyl-2,3-dihydro-1H-inden-4-yl)-1H-pyrazole-4-carboxamide]
pest or weed control at 1 ppm (Alternaria solani; [2]): 0% | pest or weed control at 2 ppm (Alternaria solani; [2]): 3% | pest or weed control at 4 ppm (Alternaria solani; [2]): 11% | pest or weed control at 62.5 ppm (Septoria tritici; Zymoseptoria tritici, 504 h, read-out: Efficacy in % found, 62.5 ppm a.i.): 25% | pest or weed control at 125 ppm (Septoria tritici; Zymoseptoria tritici, 504 h, read-out: Efficacy in % found, 125 ppm a.i.): 63% | Efficacy % (Pyrenophora teres; 4 ppm): 43% | Efficacy % (Pyrenophora teres; 20 ppm): 62% | Efficacy in % found (Phakopsora pachyrhizi; Table C2, 1 ppm a.i.): 50% | Efficacy in % found (Phakopsora pachyrhizi; Table C2, 2 ppm a.i.): 95% | Efficacy in % found (Phakopsora pachyrhizi; Table C2, 4 ppm a.i.): 100%

O=C(Nc1ccccc1)N(Cc1ccc(Cl)cc1)C1CCCC1 [4.005 pencycuron, pencycuron]
pest or weed control at 25 ppm (Alternaria solani; Alternaria solani, 72 h, Table A1, 25 ppm a.i., 3 days after inoculation, read-out: Efficacy in % found): 5% | pest or weed control at 50 ppm (Alternaria solani; Alternaria solani, 72 h, Table A1, 50 ppm a.i., 3 days after inoculation, read-out: Efficacy in % found): 21% | pest or weed control at 100 ppm (Alternaria solani; Alternaria solani, 72 h, Table A1, 100 ppm a.i., 3 days after inoculation, read-out: Efficacy in % found): 33% | Efficacy in % found (Colletotrichum coccodes; Table B1, 25 ppm a.i.): 33% | Efficacy in % found (Colletotrichum coccodes; Table B1, 50 ppm a.i.): 33% | Efficacy in % found (Colletotrichum coccodes; Table B1, 100 ppm a.i.): 33%

N#Cc1c(Cl)c(Cl)c(Cl)c(C#N)c1Cl [5.004 chlorothalonil, chlorothalonil]
pest or weed control at 25 ppm (Alternaria solani; Alternaria solani, 72 h, 25 ppm a.i., tomatoes, 3 days after inoculation, read-out: Efficacy in % found): 13% | pest or weed control at 50 ppm (Alternaria solani; Alternaria solani, 72 h, 50 ppm a.i., tomatoes, 3 days after inoculation, read-out: Efficacy in % found): 33% | Efficacy in % found (Colletotrichum coccodes; Table B2, 25 ppm a.i.): 8% | Efficacy in % found (Colletotrichum coccodes; Table B2, 50 ppm a.i.): 8%

CCCN(CC)CC1COC2(CCC(C(C)(C)C)CC2)O1 (stereo not shown) [1.020 spiroxamine, spiroxamine]
Efficacy in % found (Alternaria solani; Table A1, 25 ppm a.i., 3 days after inoculation): 13% | Efficacy in % found (Alternaria solani; Table A1, 50 ppm a.i., 3 days after inoculation): 38% | Efficacy in % found (Alternaria solani; Table A1, 100 ppm a.i., 3 days after inoculation): 49% | Efficacy in % found (Colletotrichum coccodes; Table B1, 25 ppm a.i.): 33% | Efficacy in % found (Colletotrichum coccodes; Table B1, 50 ppm a.i.): 44% | Efficacy in % found (Colletotrichum coccodes; Table B1, 100 ppm a.i.): 49% | Efficacy in % found (Phakopsora pachyrhizi; Table C1, 25 ppm a.i.): 23% | Efficacy in % found (Phakopsora pachyrhizi; Table C1, 50 ppm a.i.): 50% | Efficacy in % found (Phakopsora pachyrhizi; Table C1, 100 ppm a.i.): 75%

OC(Cc1ccccc1Cl)(Cn1nc[nH]c1=S)C1(Cl)CC1 (stereo not shown) [1.018 prothioconazole, prothioconazole]
Efficacy in % found (Colletotrichum coccodes; Table B1, 2.5 ppm a.i.): 38% | Efficacy in % found (Colletotrichum coccodes; Table B1, 5 ppm a.i.): 59% | Efficacy in % found (Colletotrichum coccodes; Table B1, 10 ppm a.i.): 79%

N#Cc1c[nH]cc1-c1cccc2c1OC(F)(F)O2 [Example 13.001, fludioxonil]
Efficacy in % found (Venturia inaequalis; 5 ppm a.i.): 8% | Efficacy in % found (Venturia inaequalis; 10 ppm a.i.): 4% | Efficacy in % found (Venturia inaequalis; 20 ppm a.i.): 4% | pest or weed control at 20 ppm (Puccinia triticina; Puccinia triticina, 192 h, read-out: Efficacy in % found, 20 ppm a.i.): 0% | pest or weed control at 40 ppm (Puccinia triticina; Puccinia triticina, 192 h, read-out: Efficacy in % found, 40 ppm a.i.): 0% | pest or weed control at 80 ppm (Puccinia triticina; Puccinia triticina, 192 h, read-out: Efficacy in % found, 80 ppm a.i.): 0% | pest or weed control at 20 ppm (Puccinia triticina; Puccinia triticina, 192 h, read-out: Efficacy in % found, Table H1, 20 ppm a.i.): 0% | pest or weed control at 40 ppm (Puccinia triticina; Puccinia triticina, 192 h, read-out: Efficacy in % found, Table H1, 40 ppm a.i.): 0% | pest or weed control at 80 ppm (Puccinia triticina; Puccinia triticina, 192 h, read-out: Efficacy in % found, Table H1, 80 ppm a.i.): 22% | Efficacy % (Pyricularia oryzae; 0.2 ppm): 82% | Efficacy % (Pyricularia oryzae; 1 ppm): 87% and 88% | Efficacy % (Pyricularia oryzae; 5 ppm): 89% and 79% | pest or weed control at 20 ppm (Septoria tritici; Zymoseptoria tritici, 504 h, read-out: Efficacy in % found, 20 ppm a.i.): 29% | pest or weed control at 40 ppm (Septoria tritici; Zymoseptoria tritici, 504 h, read-out: Efficacy in % found, 40 ppm a.i.): 29% | pest or weed control at 80 ppm (Septoria tritici; Zymoseptoria tritici, 504 h, read-out: Efficacy in % found, 80 ppm a.i.): 29% | Ecotoxicity LC50-96 h found [1]: 0.89 ppm a.i.

mancozeb [5.013 mancozeb]
Efficacy in % found (Alternaria solani; 12.5 ppm a.i., tomatoes, 3 days after inoculation): 28% | Efficacy in % found (Alternaria solani; 25 ppm a.i., tomatoes, 3 days after inoculation): 33% | Efficacy in % found (Alternaria solani; 50 ppm a.i., tomatoes, 3 days after inoculation): 77% | Efficacy in % found (Colletotrichum coccodes; Table B2, 12.5 ppm a.i.): 0% | Efficacy in % found (Colletotrichum coccodes; Table B2, 25 ppm a.i.): 0% | Efficacy in % found (Colletotrichum coccodes; Table B2, 50 ppm a.i.): 0%

COc1ccnc(C(=O)N[C@H]2COC(=O)[C@H](Cc3ccccc3)[C@@H](OC(=O)C(C)C)[C@H](C)OC2=O)c1OCOC(=O)C(C)C [Example 3.025, (3S,6S,7R,8R)-8-benzyl-3-[({3-[(isobutyryloxy)methoxy]-4-methoxypyridin-2-yl}carbonyl)amino]-6-methyl-4,9-dioxo-1,5-dioxonan-7-yl 2-methylpropanoate]
pest or weed control at 37.5 ppm (Puccinia triticina; Puccinia triticina, 192 h, read-out: Efficacy in % found, Table H1, 37.5 ppm a.i.): 22% | pest or weed control at 75 ppm (Puccinia triticina; Puccinia triticina, 192 h, read-out: Efficacy in % found, Table H1, 75 ppm a.i.): 67% | pest or weed control at 150 ppm (Puccinia triticina; Puccinia triticina, 192 h, read-out: Efficacy in % found, Table H1, 150 ppm a.i.): 89% | Efficacy % (Pyricularia oryzae; 0.8 ppm): 91% and 67% | Efficacy % (Pyricularia oryzae; 4 ppm): 84% and 85% | Efficacy % (Pyricularia oryzae; 20 ppm): 100% and 72% | pest or weed control at 5 ppm (Alternaria solani; [2]): 18% | pest or weed control at 10 ppm (Alternaria solani; [2]): 18% | pest or weed control at 20 ppm (Alternaria solani; [2]): 58% | pest or weed control at 37.5 ppm (Septoria tritici; Zymoseptoria tritici, 504 h, read-out: Efficacy in % found, 37.5 ppm a.i.): 13% | pest or weed control at 150 ppm (Septoria tritici; Zymoseptoria tritici, 504 h, read-out: Efficacy in % found, 150 ppm a.i.): 63% | Efficacy % (Pyrenophora teres; 100 ppm): 10% | Efficacy in % found (Phakopsora pachyrhizi; Table C2, 5 ppm a.i.): 23% | Efficacy in % found (Phakopsora pachyrhizi; Table C2, 10 ppm a.i.): 40% | Efficacy in % found (Phakopsora pachyrhizi; Table C2, 20 ppm a.i.): 63% | Ecotoxicity LC50-96 h found [1]: 1.87 ppm a.i.
